In ChEMBL document CHEMBL1139617, “Total synthesis and bioactivity of unique flavone desmosdumotin B and its analogs” (2005):

System: Raji
Assay: Percent viability of Raji cells at concentration of 1000 mol ratio / 20 ng/mL TPA
Format: functional, Homo sapiens

`CC(=O)C1=C(O)C(C)=C(O)C(C)(C)C1=O` was tested. Which Viability did it give?
The Viability was 60%.

For `CC(=O)c1c(O)cc(O)c(C(C)=O)c1O`, which Viability is on record?
The Viability was 60%.

Which Viability does the source give for `CC1=C(O)C(C)(C)C2=C(C(=O)CC(c3ccccc3)O2)C1=O` (stereo unspecified) here?
Its Viability is 70%.

Which Viability does the source give for `CC(=O)C1=C(O)C(C)(C)C(=O)C(C)(C)C1=O` here?
The Viability was 60%.

How did the Viability turn out when `CC1=C(O)C(C)(C)c2oc(-c3ccccc3)cc(=O)c2C1=O` [DESMOTUMOTIN B] was run?
Its Viability is 70%.

`COC1=C(C)C(=O)c2c(oc(-c3ccccc3)cc2=O)C1(C)C` was tested. Which Viability did it give?
Its Viability is 70%.

With `COC1=C(C)C(O)=C(C(=O)/C=C/c2ccccc2)C(=O)C1(C)C` [DESMOSDUMOTIN C] as the molecule, how does the Viability read?
The Viability was 70%.

For `CC(=O)C1=C(O)C(C)(C)C(O)=C(C(C)=O)C1=O`, which Viability is on record?
The Viability was 60%.

With `CC1(C)C(=O)C(C(=O)/C=C/c2ccccc2)=C(O)C(C)(C)C1=O` as the molecule, how does the Viability read?
Its Viability is 70%.

Which Viability does the source give for `CC(=O)C1=C(O)C(C)(C)C(O)=CC1=O` here?
The Viability was 60%.

`CC1=C(O)C(C)(C)C(O)=C(C(=O)/C=C/c2ccccc2)C1O` (stereo unspecified) was tested. Which Viability did it give?
The Viability was 70%.
